The values below come from patent publication US5837698A, “Steroid nitrite and nitrate ester derivatives useful as anti-inflammatory drugs” (G. D. Searle & Co., priority 1996, dated 1998).

The subject of assay [1] is rat aortic ring smooth muscle. The assay is described as follows: In vitro smooth muscle relaxant activity assay (rat aortic ring) in the presence of Cys and L-NAME. The format is cell-based. Conditions: for EC50: rat aortic rings precontracted with phenylephrine (0.3 uM), in the presence of cysteine and L-NAME, read-out: Relaxation, EC50. The method, then: The rat aortic ring assay was utilized as a bioassay to measure the relaxant activity. The rings were precontracted with phenylephrine (0.3 uM) and subsequently compounds were added to the tissue bath in the presence of cysteine (Cys) and N^G -L-nitroarginine methyl ester (L-NAME): A.In vitro smooth muscle relaxant activity assay in the presence of Cys and L-NAME: […]

Assay [2] has as its system prostaglandin E2 (PGE2) synthesis in Human fetal fibroblast cells. Kind of assay: In vitro inhibition of prostaglandin E2 (PGE2) synthesis assay. Conditions: IL-1 for 16 hours, compound 10 uM given with IL-1, ELISA, Basal 0.6, IL-1 alone 9.4. The format is cell-based. The method, then:
B. In vitro inhibiton of prostaglandin E2 (PGE2) synthesis assay: Human fetal fibroblast cells were treated with IL-1 for 16 hours and prostaglandin E2 was measured by an ELISA. Compounds were given at the time of addition of IL-1. This assay provides an in vitro assessment of the compound to block the induction of the proinflammatory agent prostaglandin E2 (PGE2): […]
For orientation: An ELISA detects its analyte on a solid surface through an enzyme-linked reagent.

On to `CCC(=O)OCC(=O)[C@@]1(OC(=O)CC)[C@@H](C)C[C@H]2[C@@H]3CCC4=CC(=O)C=C[C@]4(C)[C@@]3(Cl)[C@@H](O)C[C@@]21C` [Beclomethasone-dipropionate, reference compound], for which, in assay [1] (rat aortic ring, precontracted with phenylephrine, Cys and L-NAME), the “smooth muscle relaxant activity (in words)” value was “did not show any effect”. The concentration giving a half-maximal response (EC50) in assay [1] worked out at 100 µM.
Take `C[C@@H]1C[C@H]2[C@@H]3CCC4=CC(=O)C=C[C@]4(C)[C@@]3(F)[C@@H](O)C[C@]2(C)[C@@]1(O)C(=O)CO` [Dexamethasone, reference compound]: in assay [2], the PGE2 came out at 0.6 ng.
`CCC(=O)OCC(=O)[C@@]1(OC(=O)CC)[C@@H](C)C[C@H]2[C@@H]3CCC4=CC(=O)C=C[C@]4(C)[C@@]3(Cl)[C@@H](OC(=O)CCC(=O)O[C@H]3CO[C@H]4[C@@H]3OC[C@H]4O[N+](=O)[O-])C[C@@]21C` [Example 1]: the EC50 in assay [1] was above 10 µM. Moreover, the PGE2 in assay [2] worked out at 0.5 ng.
Consider `C[C@]12C=CC(=O)C=C1CC[C@@H]1[C@@H]2[C@@H](O)C[C@@]2(C)[C@H]1CC[C@]2(O)C(=O)COC(=O)CCC(=O)O[C@H]1CO[C@H]2[C@@H]1OC[C@H]2O[N+](=O)[O-]` [Example 21], for which the EC50 in assay [1] is 3 µM. This molecule returned a PGE2 in assay [2] of 0.4 ng.

One may read the EC50 as the concentration that produces a half-maximal response.
